Legend:
[1] = test system: HT-29 human tumor (colorectal adenocarcinoma) xenograft; test: In vivo antitumor activity, HT-29 xenograft; settings: HT-29 xenograft in CB17 SCID mice; for volume size of the tumors: eighteen days after single i.p. dose at LD10; for tumor inhibition (TI): single i.p. dose at LD10
Protocol: CB17 severe combined immunodeficient (SCID) male and female mice were used for toxicity and antitumor activity studies. Mice were obtained from National Center for Scientific Research (NCSR) Demokritos, Institute of Biology, Athens, Greece. CB17 SCID mice were fed water and an irradiated standard rodent diet ad libitum and housed under specific pathogen-free conditions. For ethical reasons, the weight and tumor volumes of the animals were measured twice a week during the experiment. In case of cachexia, suffering, or increase in the tumor volume up to 2000 mm^3, the animals were sacrificed by cervical disruption. The protocol was approved by the ethical committee of the National and Kapodistrian University of Athens and was conducted according to the European Directive 86/609/EEC guidelines for the care and use of laboratory animals. The study received a permit from the Veterinary Directorate of the Prefecture of Athens (approval #: 2023/2017) according to the Greek legislation conforming to the 2010/53/ EU Council Directive.
HT-29 (human colorectal adenocarcinoma) tumor volume was developed by subcutaneously implanting 2 × 10^6 HT-29 cells/mouse in the right hind flank. In vivo antitumor activity was investigated in 22 mice, of which 7 mice served as the common control group and the 15 remaining mice were divided into three groups of 5 mice. Therefore, each derivative was administered in a group of five mice. The animals were randomized into test groups on day 28 when their tumor volumes were in the 150–200 mm^3 range. After randomization, the mice were treated intraperitoneally (day 1) with the tested compounds (KA25, KA26, and KA39) as a single dose LD10. The control group received saline buffer (0.2 mL).
The tumor volumes were measured using an analogue caliper twice a week starting on the first day of treatment. To determine the volume (mm^3) of each tumor in an animal, the following formula was used: (D × d^2/2), where D and d refer to the larger and smaller perpendicular dimensions collected at each measurement, respectively. The diameters were determined from two orthogonal measurements on each tumor. The mean tumor volume was determined by average all tumor volumes in each group. The weekly mean tumor area change was determined and tumor inhibition (TI) was calculated by the formula: TI (%) = [1 − (TWT − TWZ)/[(TWC − TWZ)] × 100, where TWT is determined as the tumor area (mm^3) in treated animals at the time of evaluation, TWZ is determined as the tumor area (mm^3) at the time of initiation of treatment (zero time), and TWC is determined as the tumor volume (mm^3) in untreated animals (controls) at the time of evaluation. The animals were sacrificed when the tumor volume reached 2000 mm^3 (endpoint).

Akt2 phosphorylation = test: Detection of Akt2 phosphorylation by intracellular flow cytometry; format: cell-based, human; settings: for decrease of Akt2 phospho-form: HT-29 cells; for phosphorylation of Akt2: GI50 and TGI concentrations
Protocol: (§1) To investigate whether KA25 and KA39 triazolo[3,4-b]thiadiazole derivatives inhibit the phosphorylation of Akt1 and Akt2 isoforms, three colorectal cancer cell lines including HT-29, LoVo, and SW403 were intracellularly stained upon treatment with the two referred compounds. Firstly, cells were seeded into a 6-well plate at a density of 7 × 10^5 cells/well and maintained at 37 °C in a […]. After 24 h of cell growth, the culture medium was discarded and replaced with 2 mL of fresh medium. […] The required GI50 and TGI concentrations (μΜ) of the KA25 and KA39 derivatives in HT-29 and LoVo cells have been determined in previous studies. To estimate the TGI concentration (μΜ) of the KA25 compound in SW403 cells, further MTT assays were carried out as previously described. Following drug exposure at the mentioned treatment conditions, the cells were collected after being washed with ice-cold PBS (pH = 7.4) and detached enzymatically with standard trypsinization. Two centrifugations were followed at 1500 rpm for 5 min, including two washing steps with 2 mL of cell staining buffer (BioLegend, San Diego, CA, USA). Cell pellets were fixed with 500 μL of pre-warmed fixation buffer (BioLegend, San Diego, CA, USA) and incubated at 37 °C for 15 min. Afterwards, one centrifugation was carried out at 1000 rpm for 5 min, followed by supernatant discard and resuspension of cell pellet through vortex. Then, the cells were washed with 2 mL of cell staining buffer twice, including two centrifugations at 1000 rpm for 5 min at room temperature. After the cell pellet was resuspended with gentle pipetting, cells were permeabilized by adding 1000 μL of pre-chilled True-Phos Permeabilization buffer (BioLegend, San Diego, CA, USA) while vortexing. Following overnight incubation at −20 °C, the cells were centrifuged at 2000 rpm for 5 min and the supernatant was discarded. After the cell pellet was resuspended by vortexing, two centrifugations were performed at 2000 rpm for 5 min including two washes with 2 mL of cell staining buffer. The cell pellet was resuspended with 200 μL of cell staining buffer, and equal volumes were transferred into the appropriate tubes. To detect total Akt1 and Akt2, 2 μL of purified anti-Akt1 and anti-Akt2 (BioLegend, San Diego, CA, USA) was added, respectively. Additionally, 2 μL of purified anti-Akt phospho(Ser473) (BioLegend, San Diego, CA, USA) was added for the detection of either phosphorylated AKT1 or AKT2. Furthermore, a cocktail of isotype controls (5 μL of purified mouse IgG1, 5 μL of purified mouse IgG2b, and 1 μL of purified rabbit polyclonal isotype control antibody) was used to differentiate nonspecific background signals from specific antibody signals. The cells were incubated for 30 min at room temperature in the dark and then stained with 5 μL of phycoerythrin (PE) donkey anti-rabbit IgG and 2 μL of Alexa Fluor 488 Goat anti mouse IgG (BioLegend, San Diego, CA, USA). After 15 min of incubation in the dark, the cells were resuspended with 1000 μL of cell staining buffer and analyzed in the flow cytometer (CyFlow®, SL, Partec, GmbH, Muenster, Germany). Flow cytometric analysis was carried out in triplicate and performed by Partec Flomax software.
(§2) The inhibitory impact of the two triazolo[3,4-b]thiadiazole derivatives KA25 and KA39 on the phosphorylation of either Akt1 (p-Akt1) or Akt2 (p-Akt2) was determined by the following formulas: p-Akt1(%) or p-Akt2 (%) = [(mean-xtreated − isotypetreated)]/[(mean-xuntreated − isotypeuntreated)] × 100, where the isotype value is subtracted from the mean-x value of the corresponding condition, including treated and untreated cells. As the formulas indicate, the difference in value of treated cells is divided by the difference in value of untreated cells (control group) to estimate the extent of inhibition. […]

Akt1 phosphorylation = test: Detection of Akt1 phosphorylation by intracellular flow cytometry; format: cell-based, human; settings: for decrease of Akt1 phospho-form: HT-29 cells; for phosphorylation of Akt1: GI50 and TGI concentrations
Protocol: as §1, §2

HT-29 = test system: HT-29; design: method as in PMID 32801761; settings: HT-29 cells, concentration used for Akt phosphorylation study, determined in previous studies ref 23; cited from earlier work
[2] = GI50 concentration (KA39 11.5 μΜ, KA25 1 μΜ), 3 h
[3] = GI50 concentration (KA39 11.5 μΜ, KA25 1 μΜ), 24 h
[4] = TGI concentration (KA39 15.9 μΜ, KA25 120 μΜ), 3 h
[5] = TGI concentration (KA39 15.9 μΜ, KA25 120 μΜ), 24 h
[6] = LoVo cells, 3 and 24 h (Figure S47)
[7] = SW403 cells, 3 and 24 h (Figure S48)

Row | SMILES | volume size of the tumors [1] [mm^3] | tumor inhibition (TI) [1] [%] | decrease of Akt2 phospho-form (Akt2 phosphorylation; [2]) [%] | decrease of Akt2 phospho-form (Akt2 phosphorylation; [3]) [%] | decrease of Akt2 phospho-form (Akt2 phosphorylation; [4]) [%] | decrease of Akt2 phospho-form (Akt2 phosphorylation; [5]) [%] | phosphorylation of Akt2 (Akt2 phosphorylation; [6]) | phosphorylation of Akt2 (Akt2 phosphorylation; [7]) | decrease of Akt1 phospho-form (Akt1 phosphorylation; [2]) [%] | decrease of Akt1 phospho-form (Akt1 phosphorylation; [3]) [%] | decrease of Akt1 phospho-form (Akt1 phosphorylation; [4]) [%] | decrease of Akt1 phospho-form (Akt1 phosphorylation; [5]) [%] | phosphorylation of Akt1 (Akt1 phosphorylation; [6]) | phosphorylation of Akt1 (Akt1 phosphorylation; [7]) | TGI concentration (HT-29) [μΜ]
1 | COc1cc(Cc2nnc3sc(C=Cc4ccc(Cl)cc4)nn23)c(S(=O)(=O)N(C)C)cc1OC [KA26] | 528.5 ± 167.7 | 62.4 |  |  |  |  |  |  |  |  |  |  |  |  | 
2 | COc1cc(Cc2nnc3sc(C=Cc4ccc(F)cc4)nn23)c(S(=O)(=O)N(C)C)cc1OC [KA25] | 521.6 ± 101.6 | 62.1 | 73.74 | 76.9 | 82.6 | 86.4 | significantly inhibited | significantly inhibited | 83.38 | 79.8 | 86.45 | 87.73 | significantly inhibited | significantly inhibited | 120
3 | COc1cc(Cc2nnc3sc(-c4cc([N+](=O)[O-])ccc4[N+](=O)[O-])nn23)c(S(=O)(=O)N(C)C)cc1OC [KA39] | 489.17 ± 81.5 | 67.6 | 60.76 | 83.55 | 58.87 | 86 | significantly inhibited | significantly inhibited | 73.66 | 75.71 | 72.9 | 88.5 | significantly inhibited | significantly inhibited | 15.9

From paper PMC8066331, “Anticancer Activity of Triazolo-Thiadiazole Derivatives and Inhibition of AKT1 and AKT2 Activation” (Pharmaceutics, 2021)
